# Measurements taken from US20150273076A1, “SP1 POLYPEPTIDES, MODIFIED SP1 POLYPEPTIDES AND USES THEREOF” (Fulcrum SP Ltd., priority 2006, published 2015).
# Key:
# [1] = mouse, in vivo, iv
# Protocol: C57B1 male mice bearing the B16-F10 (B16) melanoma tumor were divided into three groups: Group A-injected once (iv with fluoresceinamine-SP1 conjugate (10 mg/ml, 0.1 ml per mouse), n=5 mice;
# Group B-injected once with unconjugated fluoresceinamine solution (34 mM in PBS, 0.1 ml per animal); n=5 mice; and Group C received no treatment. n=2 mice. Internal organs were harvested 24 hours post injection, and stored at 70° C. Blood was collected and left at room temperature to coagulate. Tumor extracts and serum samples were analyzed on SDS PAGE, and proteins were blotted onto nitrocellulose. Immunodetection of SP1 was with rabbit anti SP1 and HRP-conjugated second antibody.
# B16-F10 (B16) melanoma tumor C57B1 male mice bearing the B16-F10 (B16) melanoma tumor were prepared and cared for as described by Kalechman (Int J Cancer 2000; 86:281-8). B16F10 melanoma cells (5×10^5 or 5×10^6 cells/mouse) were injected into the lateral tail vein of the mice and the presence of cancer tumors was evaluated at day 14 following melanoma cell injection by an overall view of the mouse and/or histopathology examinations. […]
# SP1 = test: Vinblastine binding to SP1 by intrinsic tryptophan fluorescence; design: species or system Populus tremula; details: native SP1; 80 μM Vinblastine shifts maximal emission to 356 nm
# Protocol: FIG. 23 is a graph showing the complex formation of the drug Vinblastine to SP1. Left panel-emission spectra (excitation wavelength=286.00 nm) of pure SP1 (48 μM in MES) was determined using a fluorometer. Both native (left curves) and unfolded (6M Guanidinum HCl)(right curves) SP1 were tested. The net effect of Vinblastine on Tryptophan fluorescence of native protein was calculated by subtracting the relative quenching by the unfolded protein from those of the native protein at the respective maximal emission wavelength (340 nm and 321 nm respectively). Note that the tryptophan fluorescence of both the folded and unfolded SP1 protein is quenched by Vinblastine complexing, but in the case of the folded protein is also accompanied by a red shift);
# Vinblastine, a vinca alkaloid, is mainly useful for treating Hodgkin's disease, lymphocytic lymphoma, histiocytic lymphoma, advanced testicular cancer, advanced breast cancer, Kaposi's sarcoma. Vinblastine binding to SP1, was determined by Intrinsic Tryptophan fluorescence measurements.
# SP1 has only one Tryptophan residue (Trp 48). […] Unfolded protein fluorescence is also quenched by Vinblastine (FIG. 23), but unlike the native protein it is not accompanied by red shift. Thus, folded SP1-Vinblastine association can be detected, and quantified by changes in its Intrinsic Tryptophan fluorescence.
# [2] = system: Human colon adenocarcinoma (HT-29) cells; test: In-vitro cytotoxicity in HT-29 cells; format: cell-based; details: HT-29 cells, dose inhibiting 50% of cell growth
# Source text: FIGS. 24a and 24b are graphs illustrating the in-vitro cytotoxic effects of SP1-DOX complex. FIG. 24a—HT-29 cells cultured in 96 well microtiter plates were exposed to uncomplexed DOX (closed oval, magenta) or SP1-DOX complex (closed triangle, blue) prepared as described in FIGS. 9-15, at the indicated concentrations. FIG. 24b—HT-29 cells were exposed to uncomplexed SP1 (without DOX) (closed diamond, blue) or SP1-DOX complex (closed triangle, yellow) at indicated concentrations. Proportion of living cells was determined by MTT assay, and the IC50 was calculated.
# HT-29 cells were prepared as in FIG. 24 above.
# Human colon adenocarcinoma (HT-29) cells. The cells were grown in 50-ml flasks containing DMEM medium (Biological Industries, Bet Haemek), supplemented with 10% fetal calf serum, 1% glutamine and 1% Antibiotic-Antimicotic solution (Biolab, Israel). The cells were trypsinizated, and 2 ml medium containing 5×10^4 cells were plated in each well of a 6-wells plate. SP1, drugs or SP1-complexed with drugs was added at the indicated concentrations. The cells were incubated at 37° C. in a humidified atmosphere containing 5% CO2.After 48 hours the medium in the presence or absence of drugs was replaced in each well respectively, to maintain a constant supply of ingredients and drugs. After four days the medium was removed and the number of viable cells in the cultures was determined by spectroscopy.
# The human colorectal adenocarcinoma cell line, HT-29, was used to evaluate the biological activity of the SP1-DOX complex, compared to that of the free drug and un-complexed SP1 protein. […] Thus, the SP1-DOX complex is at least as biologically active as free DOX.
# [3] = system: human LS147T colon cancer; test: In-vivo anti-tumorogenic activity in colon cancer xenograft; design: species or system CD1 nude mice; details: SP1-DOX 0.5 and free DOX 3 mg DOX/kg iv two times a week
# Protocol: CD1 nude mice bearing human LS147T colon cancer (one million cells per animal) subcutaneous xenografted tumors were divided into two groups (n=6), and received either SP1-Dox (50 mg/Kg in PBS, about 0.5 mg DOX equivalent/Kg) or PBS (FIG. 27a), or uncomplexed DOX (3 mg/Kg) or PBS (FIG. 27b) alone injected intravenously into the tail vein twice per week for four weeks. Tumors were removed and weighed 35 days post engraftment.
# Human LS147T colon cancer (one million cells per animal) were grafted sub cutaneously to CD1 nude mice, […], 18-20 g) (Meyer et al. 1995 Am J Dermatopath; 17:368-73). 8 days later a 3-10-mm tumor appeared in the point of injection. […]
# 8 days after tumor grafting SP1-DOX (50 mg/Kg in PBS, about […]), free DOX (3 mg/Kg in PBS) or PBS alone, six mice in each group, were injected iv to the tail vein twice a week for four weeks. Tumor dimension was determined by caliper measurements by the standard equation (Kalechman et al. Int J Cancer 2000; 86:281-8). […] Tumors were removed and their weight was determined.
# The effect of SP1-complexing on the anti-tumorogenic activity of DOX was determined in vivo using the LS147 (human colon cancer) model in CD1 nude mice (Meyer 1995). […] At 35 days past tumor grafting, the animals were sacrificed, tumors were removed and their weight recorded (FIGS. 27a and 27b). […]
smiles,measurement,setting,value
Nc1ccc2c(c1)C(=O)OC21c2ccc(O)cc2Oc2cc(O)ccc21 [Fluoresceinamine],clearance from circulation,[1],rapidly cleared
CC[C@]1(O)C[C@@H]2CN(CCc3c([nH]c4ccccc34)[C@@](C(=O)OC)(c3cc4c(cc3OC)N(C)[C@H]3[C@@](O)(C(=O)OC)[C@H](OC(C)=O)[C@]5(CC)C=CCN6CC[C@]43[C@@H]65)C2)C1 [Vinblastine],effect on SP1 tryptophan fluorescence,SP1,fluorescence quenching accompanied by a red shift
COc1cccc2c1C(=O)c1c(O)c3c(c(O)c1C2=O)C[C@@](O)(C(=O)CO)C[C@@H]3O[C@H]1C[C@H](N)[C@H](O)[C@H](C)O1 [doxorubicin],IC50,[2],~0.6 µg/mL
same,histological examination of the tumors,[3],extensive necrosis
same,average tumor size in the end of the experiment versus PBS-treated animals,[3]; 35 days,much smaller
